Experimental data published in ChEMBL document CHEMBL1201862, “PubChem BioAssay data set” (2004).
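Step 1: Grow cells in 96-well plates. Step 2: Expose to compound for 48 hours at 5 concentrations. Step 3: Interpolate endpoints linearly; if unreached, use highest concentration. At the GI50, growth is halved.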 The source made the active and inactive calls. Rule as the data show it: active = GI50 up to about 1.1 µM and inactive = higher.

Assays:
Experiment in all cases: NCI-60 cell line screen, 48 h
SF-268 = system: SF-268
RXF 393 = system: RXF 393
U-251 = system: U-251
NCI-H460 = system: NCI-H460
ACHN = system: ACHN
NCI-H23 = system: NCI-H23
EKVX = system: EKVX
UACC-257 = system: UACC-257
A549 = system: A549
SW-620 = system: SW-620
HCT-15 = system: HCT-15
SF-295 = system: SF-295
HOP-62 = system: HOP-62
CAKI-1 = system: CAKI-1
HCT-116 = system: HCT-116
LOX IMVI = system: LOX IMVI
M14 = system: M14
HL-60 = system: HL-60
CCRF-CEM = system: CCRF-CEM
SN12C = system: SN12C
HOP-92 = system: HOP-92
LXFL 529 = system: LXFL 529
SK-MEL-28 = system: SK-MEL-28
SNB-19 = system: SNB-19
A498 = system: A498
DMS-273 = system: DMS-273
NCI-H522 = system: NCI-H522
OVCAR-8 = system: OVCAR-8
OVCAR-4 = system: OVCAR-4
SK-MEL-5 = system: SK-MEL-5
KM-20L2 = system: KM-20L2
COLO 205 = system: COLO 205
SF-539 = system: SF-539
RXF 631 = system: RXF 631
K562 = system: K562
HT-29 = system: HT-29
786-0 = system: 786-0
RPMI-8226 = system: RPMI-8226
TK-10 = system: TK-10
OVCAR-5 = system: OVCAR-5
IGROV-1 = system: IGROV-1
NCI-H226 = system: NCI-H226
SR = system: SR
OVCAR-3 = system: OVCAR-3
KM12 = system: KM12
SK-MEL-2 = system: SK-MEL-2
UACC-62 = system: UACC-62
UO-31 = system: UO-31
MOLT-4 = system: MOLT-4
XF498 = system: XF498
DMS-114 = system: DMS-114
HOP-18 = system: HOP-18
HCC 2998 = system: HCC 2998
SNB-75 = system: SNB-75
SNB-78 = system: SNB-78
Malme-3M = system: Malme-3M
M19-MEL = system: M19-MEL
DLD-1 = system: DLD-1
SK-OV-3 = system: SK-OV-3

O=C1O[C@H](c2ccccc2)[C@@H]2CC3(CCN12)OCCO3
GI50 (SF-268): > 100 µM (inactive) | GI50 (RXF 393): > 100 µM (inactive) | GI50 (U-251): > 100 µM (inactive) | GI50 (NCI-H460): > 100 µM (inactive) | GI50 (ACHN): > 100 µM (inactive) | GI50 (NCI-H23): 68.9 µM (inactive) | GI50 (EKVX): > 100 µM (inactive) | GI50 (UACC-257): > 100 µM (inactive) | GI50 (A549): > 100 µM (inactive) | GI50 (SW-620): > 100 µM (inactive) | GI50 (HCT-15): > 100 µM | GI50 (SF-295): > 100 µM (inactive) | GI50 (HOP-62): > 100 µM (inactive) | GI50 (CAKI-1): > 100 µM (inactive) | GI50 (HCT-116): > 100 µM (inactive) | GI50 (LOX IMVI): > 100 µM (inactive) | GI50 (M14): > 100 µM (inactive) | GI50 (HL-60): > 100 µM (inactive) | GI50 (CCRF-CEM): > 100 µM (inactive) | GI50 (SN12C): > 100 µM (inactive) | GI50 (HOP-92): 69.2 µM (inactive) | GI50 (LXFL 529): > 100 µM (inactive) | GI50 (SK-MEL-28): > 100 µM (inactive) | GI50 (SNB-19): > 100 µM (inactive) | GI50 (A498): > 100 µM (inactive) | GI50 (DMS-273): > 100 µM (inactive) | GI50 (NCI-H522): 2.2 µM (inactive) | GI50 (OVCAR-8): > 100 µM (inactive) | GI50 (OVCAR-4): > 100 µM (inactive) | GI50 (SK-MEL-5): > 100 µM (inactive) | GI50 (KM-20L2): > 100 µM (inactive) | GI50 (COLO 205): > 100 µM (inactive) | GI50 (SF-539): > 100 µM (inactive) | GI50 (RXF 631): > 100 µM (inactive) | GI50 (K562): > 100 µM (inactive) | GI50 (HT-29): > 100 µM (inactive) | GI50 (786-0): > 100 µM (inactive) | GI50 (RPMI-8226): > 100 µM (inactive) | GI50 (TK-10): > 100 µM (inactive) | GI50 (OVCAR-5): > 100 µM (inactive) | GI50 (IGROV-1): > 100 µM (inactive) | GI50 (NCI-H226): > 100 µM (inactive) | GI50 (SR): > 100 µM (inactive) | GI50 (OVCAR-3): > 100 µM (inactive) | GI50 (KM12): > 100 µM (inactive) | GI50 (SK-MEL-2): > 100 µM (inactive) | GI50 (UACC-62): > 100 µM (inactive) | GI50 (UO-31): > 100 µM (inactive) | GI50 (MOLT-4): > 100 µM (inactive) | GI50 (XF498): > 100 µM (inactive)

CC(=O)N1[C@H](C(=O)O)CS[C@H]1c1ccc(F)cc1
GI50 (SF-268): > 100 µM (inactive) | GI50 (RXF 393): > 100 µM (inactive) | GI50 (DMS-114): > 100 µM (inactive) | GI50 (NCI-H460): > 100 µM (inactive) | GI50 (ACHN): > 100 µM (inactive) | GI50 (NCI-H23): > 100 µM (inactive) | GI50 (HOP-18): > 100 µM (inactive) | GI50 (UACC-257): > 100 µM (inactive) | GI50 (A549): > 100 µM (inactive) | GI50 (SW-620): > 100 µM (inactive) | GI50 (HCC 2998): > 100 µM (inactive) | GI50 (SNB-75): > 100 µM (inactive) | GI50 (HCT-15): > 100 µM | GI50 (SF-295): > 100 µM (inactive) | GI50 (HOP-62): > 100 µM (inactive) | GI50 (CAKI-1): > 100 µM (inactive) | GI50 (HCT-116): 29.1 µM (inactive) | GI50 (LOX IMVI): > 100 µM (inactive) | GI50 (M14): > 100 µM (inactive) | GI50 (HL-60): > 100 µM (inactive) | GI50 (CCRF-CEM): > 100 µM (inactive) | GI50 (SN12C): > 100 µM (inactive) | GI50 (HOP-92): > 100 µM (inactive) | GI50 (LXFL 529): > 100 µM (inactive) | GI50 (SK-MEL-28): > 100 µM (inactive) | GI50 (SNB-78): > 100 µM (inactive) | GI50 (SNB-19): > 100 µM (inactive) | GI50 (A498): > 100 µM (inactive) | GI50 (Malme-3M): > 100 µM (inactive) | GI50 (M19-MEL): > 100 µM (inactive) | GI50 (OVCAR-8): > 100 µM (inactive) | GI50 (OVCAR-4): > 100 µM (inactive) | GI50 (SK-MEL-5): > 100 µM (inactive) | GI50 (COLO 205): > 100 µM (inactive) | GI50 (SF-539): > 100 µM (inactive) | GI50 (RXF 631): > 100 µM (inactive) | GI50 (K562): > 100 µM (inactive) | GI50 (HT-29): > 100 µM (inactive) | GI50 (786-0): > 100 µM (inactive) | GI50 (TK-10): > 100 µM (inactive) | GI50 (OVCAR-5): > 100 µM (inactive) | GI50 (IGROV-1): > 100 µM (inactive) | GI50 (NCI-H226): > 100 µM (inactive) | GI50 (SR): > 100 µM (inactive) | GI50 (OVCAR-3): > 100 µM (inactive) | GI50 (UO-31): > 100 µM (inactive) | GI50 (MOLT-4): > 100 µM (inactive)

N#Cc1ccc(Oc2cccc(Oc3ccccc3)c2)cc1C#N
GI50 (SF-268): 48.2 µM (inactive) | GI50 (RXF 393): 64 µM (inactive) | GI50 (DMS-114): 31.9 µM (inactive) | GI50 (U-251): 71.1 µM (inactive) | GI50 (NCI-H460): 74.5 µM (inactive) | GI50 (ACHN): 54.3 µM (inactive) | GI50 (NCI-H23): 44.8 µM (inactive) | GI50 (HOP-18): > 10 µM (inactive) | GI50 (EKVX): 37.5 µM (inactive) | GI50 (UACC-257): > 10 µM (inactive) | GI50 (A549): 42 µM (inactive) | GI50 (SW-620): > 100 µM (inactive) | GI50 (HCC 2998): > 10 µM (inactive) | GI50 (SNB-75): 1.35 µM (inactive) | GI50 (HCT-15): > 10 µM | GI50 (SF-295): 76.2 µM (inactive) | GI50 (HOP-62): > 10 µM (inactive) | GI50 (CAKI-1): > 10 µM (inactive) | GI50 (HCT-116): 44.3 µM (inactive) | GI50 (LOX IMVI): > 10 µM (inactive) | GI50 (M14): > 10 µM (inactive) | GI50 (HL-60): 31.9 µM (inactive) | GI50 (CCRF-CEM): 23.3 µM (inactive) | GI50 (SN12C): > 10 µM (inactive) | GI50 (HOP-92): > 10 µM (inactive) | GI50 (LXFL 529): 61 µM (inactive) | GI50 (SK-MEL-28): 61.7 µM (inactive) | GI50 (DLD-1): > 10 µM (inactive) | GI50 (SNB-78): > 10 µM (inactive) | GI50 (SNB-19): 28.5 µM (inactive) | GI50 (A498): 41.5 µM (inactive) | GI50 (Malme-3M): > 10 µM (inactive) | GI50 (NCI-H522): 14.2 µM (inactive) | GI50 (M19-MEL): > 10 µM (inactive) | GI50 (OVCAR-8): > 10 µM (inactive) | GI50 (OVCAR-4): 36.7 µM (inactive) | GI50 (SK-MEL-5): 36.7 µM (inactive) | GI50 (KM-20L2): > 10 µM (inactive) | GI50 (COLO 205): > 10 µM (inactive) | GI50 (SF-539): 99.5 µM (inactive) | GI50 (SK-OV-3): > 10 µM (inactive) | GI50 (RXF 631): 79.6 µM (inactive) | GI50 (K562): 41.4 µM (inactive) | GI50 (HT-29): > 10 µM (inactive) | GI50 (786-0): > 10 µM (inactive) | GI50 (RPMI-8226): > 10 µM (inactive) | GI50 (TK-10): > 10 µM (inactive) | GI50 (OVCAR-5): > 10 µM (inactive) | GI50 (IGROV-1): > 10 µM (inactive) | GI50 (NCI-H226): > 10 µM (inactive) | GI50 (SR): > 10 µM (inactive) | GI50 (OVCAR-3): 75.2 µM (inactive) | GI50 (KM12): > 10 µM (inactive) | GI50 (SK-MEL-2): 64 µM (inactive) | GI50 (UACC-62): > 10 µM (inactive) | GI50 (UO-31): 14.9 µM (inactive) | GI50 (MOLT-4): 30.8 µM (inactive) | GI50 (XF498): > 10 µM (inactive)
